Measurements: paper PMC6784244 (Toxins, 2019)
Converted amounts (≈) assume the structure as drawn.

Assays:
[1] = test system: BEAS-2B (human normal lung epithelial cells); type: cell-based; details: 48 h exposure, 0-100 µM, resazurin fluorescence; means ± S.D, n = 3; read-out: IC50 on cell viability, BEAS-2B
Experimental: (§1) The impact of ENN or BEA on the viability of human cells were evaluated as previously described. Cells used were human normal lung epithelial cells BEAS-2B (ATCC CRL-9609), human intestinal cell line Caco-2 (ATCC HTB-37), human normal epidermal keratinocytes (HEK) (from Lonza), human liver cell line HEPG2 (ATCC HB-8065), human normal endothelial cells (Human Umbilical Vein Endothelial Cells, HUVEC) (from Sigma-Aldrich, Lyon, France), and human gastric cell line N87 (ATCC CRL-5822). BEAS-2B, Caco-2 and HEPG2 cells were cultured in DMEM supplemented with 10% fetal calf serum (FCS), 1% L-glutamine, and 1% antibiotics (all from Invitrogen (Carlsbad, CA, USA). N87 cells were cultured in RPMI media supplemented with 10% fetal calf serum (FCS), 1% L-glutamine, and 1% antibiotics (all from Invitrogen, Carlsbad, CA, USA). HEK and HUVEC cells were cultured in specific medium (from Lonza and Sigma Aldrich, respectively). Cells were routinely grown on 25 cm^2 flasks and maintained in a 5% CO2 incubator at 37 °C. For toxicity assay, human cells grown on 25 cm^2 flasks were detached using trypsin-EDTA solution (from Thermofisher), counted using Malassez counting chamber, diluted in appropriate culture media, and seeded into 96-well cell culture plates (Greiner bio-one, Paris, France) at approximately 10^4 cells per well. The cells were left to grow for 48–72 h at 37 °C in a 5% CO2 incubator until they reached confluence. Media from wells was then aspirated and cells were treated with 100 µL of appropriate culture media containing increasing concentrations of ENN or BEA (from 0 to 100 µM, 1:2 serial dilution). […] The plates were then incubated at 37 °C for 48 h. Resazurin-based in vitro toxicity assay kit (from Sigma-Aldrich, Lyon, France) was then used to assess the viability of the cells following manufacturer’s instructions. Briefly, resazurin stock solution was diluted 1:10 in sterile PBS containing calcium and magnesium (PBS^++, pH 7.4). Plates were aspirated and 100 µL of the diluted solution were added per wells. After 4 h incubation at 37 °C, fluorescence intensity was measured using microplate reader (Biotek, Synergy Mx, Colmar, France) with an excitation wavelength of 530 nm and an emission wavelength of 590 nm. The fluorescence values were normalized by the controls (untreated cells) and expressed as percentage of cell viability. The IC50 values of ENN or BEA (i.e., the concentrations causing a reduction of 50% of the cell viability) were calculated using GraphPad® Prism 7 software (San Diego, CA, USA). Experiments were conducted in triplicate (n = 3).

[2] = test system: Caco-2 (human intestinal cell line); type: cell-based; details: 48 h exposure, 0-100 µM, resazurin fluorescence; means ± S.D, n = 3; read-out: IC50 on cell viability, Caco-2
Experimental: as §1

[3] = test system: HEPG2 (human liver cell line); type: cell-based; details: 48 h exposure, 0-100 µM, resazurin fluorescence; means ± S.D, n = 3; read-out: IC50 on cell viability, HEPG2
Experimental: as §1

[4] = test system: HUVEC (human normal endothelial cells); type: cell-based; details: 48 h exposure, 0-100 µM, resazurin fluorescence; means ± S.D, n = 3; read-out: IC50 on cell viability, HUVEC
Experimental: as §1

[5] = lipid monolayer on PBS pH 7.4, peptide 1 µM, extrapolated to delta pressure 0; -- = absence of interaction
Experimental: Peptide–lipid interaction was evaluated using reconstituted lipid monolayer at the air–water interface as previously described. Pure prokaryotic and eukaryotic lipids used were: POPC (1-palmitoyl-2-oleoyl-glycero-3-phosphocholine), POPE (1-palmitoyl-2-oleoyl-sn-glycero-3-phosphoethanolamine), POPG (1-palmitoyl-2-oleoyl-sn-glycero-3-phospho-(1’-rac-glycerol), and cardiolipin, all from Avanti Polar Lipid (Alabama, USA). LTA (Lipoteichoic acid from B. subtilis) was obtained from Invivogen SAS (Toulouse, France). Pure lipids were reconstituted in chloroform:methanol (2:1, v:v) at 1 mg/mL and stored at −20 °C under nitrogen. The interaction and insertion of the ENN and BEA into lipids were evaluated through the measurement of their critical pressure of insertion as previously described. Briefly, lipids were spread using a 50 µL Hamilton’s syringe at the surface of 800 µL of sterile PBS creating a lipid monolayer at the air–water interface. Lipids were added until the surface pressure reached the desired value. After 5–10 min of incubation allowing evaporation of the solvent and stabilization of the initial surface pressure, 8 µL of ENN or BEA diluted in sterile PBS at 100 µM were injected into the 800 µL sub-phase of PBS under the lipid monolayer (pH 7.4, volume 800 µL) using a 10 µL Hamilton syringe giving a final concentration of peptides of 1 µM, preliminary experiments having shown that this concentration gave optimal insertion. The variation of the surface pressure caused by peptide injection was then continuously monitored using a fully automated microtensiometer (µTROUGH SX, Kibron Inc., Helsinki, Finland) until reaching equilibrium (maximal surface pressure increase being usually obtained after 15–25 min). The critical pressure of insertion of each peptide was determined by changing the initial pressure of lipid monolayer (from 10 and 30 mN/m) and measuring the variation of pressure caused by the insertion of the peptide. The critical pressure of insertion of each peptide in a particular lipid was determined graphically and calculated as the theoretical value of initial pressure of lipid monolayer not permissive to peptide insertion, i.e., causing a variation of pressure equal to 0 mN/m.

[6] = test system: Methicillin-resistant S. aureus strain MRSA USA300
[7] = test system: Acinetobacter baumannii (CIP 110431)
[8] = test system: Pseudomonas aeruginosa (ATCC CRM-9027)
[9] = test system: Mycobacterium smegmatis (mc2155, ATCC 700084); details: mc2155, 72 h
A. ochraceus (DSMZ 824) = details: DSMZ 824, pH 7
[10] = test system: Candida albicans (DSMZ 10697); details: DSMZ 10697, 24 h, pH 7
[11] = test system: Fusarium graminearum (DSMZ 1095); details: DSMZ 1095, pH 7
human erythrocytes = details: pH 7.4

SMILES | IC50 [1] | IC50 [2] | IC50 [3] | IC50 [4] | critical pressure of insertion, POPG [5] | MIC, S. aureus MRSA [6] | MIC, A. baumannii [7] | MIC, P. aeruginosa [8] | MIC, M. smegmatis [9] | MIC, A. ochraceus (A. ochraceus (DSMZ 824)) | MIC, C. albicans [10] | MIC, F. graminearum [11] | HC50 (dose causing 50% hemolysis), Erythrocytes (human erythrocytes)
CC[C@H](C)[C@H]1C(=O)O[C@H](C(C)C)C(=O)N(C)[C@@H]([C@@H](C)CC)C(=O)O[C@H](C(C)C)C(=O)N(C)[C@@H](C(C)C)C(=O)O[C@H](C(C)C)C(=O)N1C [ENN A1] | 6.4 ± 1.5 µM | 2.7 ± 0.5 µM | 5.6 ± 1.1 µM | 4.6 ± 0.9 µM | 41.10 mN/m | 12.5 to 25 µM | >100 µM | >100 µM | 3.12 µM (≈ 2.08 µg/mL) | >100 µM | 1.5 µM (≈ 1 µg/mL) | 50 µM (≈ 33.4 µg/mL) | 162.7 ± 22.8 µM
CC[C@H](C)[C@H]1C(=O)O[C@H](C(C)C)C(=O)N(C)[C@@H]([C@@H](C)CC)C(=O)O[C@H](C(C)C)C(=O)N(C)[C@@H]([C@@H](C)CC)C(=O)O[C@H](C(C)C)C(=O)N1C [ENN A] | 5.7 ± 1.2 µM | 1.1 ± 0.2 µM | 3 ± 0.7 µM | 2.8 ± 0.6 µM | 44.75 mN/m | 6.25 to 12.5 µM | >100 µM | >100 µM | 6.25 µM (≈ 4.26 µg/mL) | >100 µM | 1.5 µM (≈ 1.02 µg/mL) | 25 µM (≈ 17 µg/mL) | 68.7 µM
CC[C@H](C)[C@H]1C(=O)O[C@H](C(C)C)C(=O)N(C)[C@@H](C(C)C)C(=O)O[C@H](C(C)C)C(=O)N(C)[C@@H](C(C)C)C(=O)O[C@H](C(C)C)C(=O)N1C [ENN B1] | 12.7 ± 2.8 µM | 3.1 ± 0.5 µM | 5.6 ± 1.4 µM | 7 ± 1.1 µM | 41.71 mN/m | 25 µM (≈ 16.3 µg/mL) | >100 µM | >100 µM | 6.25 µM (≈ 4.09 µg/mL) | >100 µM | 3.12 µM (≈ 2.04 µg/mL) | 25 µM (≈ 16.3 µg/mL) | 356.4 ± 59.3 µM
CC(C)[C@H]1C(=O)O[C@H](C(C)C)C(=O)N(C)[C@@H](C(C)C)C(=O)O[C@H](C(C)C)C(=O)N(C)[C@@H](C(C)C)C(=O)O[C@H](C(C)C)C(=O)N1C [ENN B] | 43.7 ± 7.7 µM | 4.6 ± 1.3 µM | 3.4 ± 0.7 µM | 17.3 ± 3.3 µM | 34.67 mN/m | >100 µM | >100 µM | >100 µM | 100 µM (≈ 64 µg/mL) | >100 µM | 6.25 µM (≈ 4 µg/mL) | >100 µM | 534.5 µM
